According to PubChem BioAssay (NCI):
Several values for one entry are separate records, joined by “and”; a condition that tells them apart may be missing. Equal entries are not always repeated.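 Step 1: Grow cells in 96-well plates. Step 2: Expose to compound for 48 hours at 5 concentrations. Step 3: Interpolate endpoints linearly; if unreached, use highest concentration. GI50 marks 50% less growth. TGI is the concentration that stops growth completely.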

Legend:
Assay in all cases: NCI anticancer screen, dose series, 48 h
786-0 renal = system: 786-0 renal
A498 renal = system: A498 renal
HCT-116 colon = system: HCT-116 colon
IGROV1 ovarian = system: IGROV1 ovarian
MOLT-4 leukemia = system: MOLT-4 leukemia
NCI-H226 lung = system: NCI-H226 lung
RPMI-8226 leukemia = system: RPMI-8226 leukemia
SF-295 CNS = system: SF-295 CNS
UACC-62 melanoma = system: UACC-62 melanoma
EKVX NSCLC = system: EKVX NSCLC

SMILES	GI50 (786-0 renal) [µM]	TGI (786-0 renal)	GI50 (A498 renal) [µM]	TGI (A498 renal)	GI50 (HCT-116 colon)	TGI (HCT-116 colon) [µM]	GI50 (IGROV1 ovarian) [µM]	TGI (IGROV1 ovarian)	GI50 (MOLT-4 leukemia)	TGI (MOLT-4 leukemia) [µM]	GI50 (NCI-H226 lung) [µM]	TGI (NCI-H226 lung) [µM]	GI50 (RPMI-8226 leukemia)	TGI (RPMI-8226 leukemia)	GI50 (SF-295 CNS) [µM]	TGI (SF-295 CNS)	GI50 (UACC-62 melanoma) [µM]	TGI (UACC-62 melanoma)	TGI (EKVX NSCLC) [µM]	GI50 (EKVX NSCLC) [µM]
O=C1NC(=O)C(c2cnc3ccccn23)=C1c1cn2c3c(cc(F)cc13)CN(C(=O)N1CCCCC1)CC2	3.05	> 59.4 µM	0.0108	11.5 µM	3.35 µM	> 89.8	21	> 80 µM	3.41 µM	> 81.4	3.7	54.8	15.9 µM	46.6 µM	0.142	33.9 µM	7.72	22.9 µM		
Cn1c2ccccc2c2c3c(c4c5cc(Br)ccc5n(C)c4c21)C(=O)N(O)C3=O	0.289	1.4 µM					0.284	> 100 µM	0.0474 µM	0.275					0.217	0.981 µM	0.308	> 100 µM		
O=C(CCn1[nH]c(=O)c(Cl)c(Cl)c1=O)NO		> 100 µM		> 100 µM				> 100 µM		> 100		> 100		> 100 µM		> 100 µM		> 100 µM	> 100	
COC1(OC)CC2C(=O)N(Cc3ccccc3)C1C(S(=O)(=O)c1ccccc1)C2S(=O)(=O)c1ccccc1 (centres undefined)		30.7 µM		58.2 µM		29.9		32.3 µM		46.6		35.2		45.5 µM		> 100 µM		26.2 µM		
Cc1cc([N+](=O)[O-])ccc1Nc1cccc(Cl)c1C		31.9 µM		29 µM		29.6		27.6 µM		33		34.9				34.6 µM		27.2 µM	49.8	
CC1=C(C(=O)Nc2ccccc2)C(c2ccccc2)C(C(=O)Nc2ccccc2)=C(C)N1		> 100 µM		> 100 µM		> 100		> 100 µM		> 100		> 100				> 100 µM		> 100 µM	> 100	
Cn1cc(CO)c2c1C(=O)C=C(N1CC1)C2=O	< 0.01	0.108 µM			< 0.0106 µM		< 0.0104	1.8 µM	2.64 µM	> 100			< 0.01 µM	0.192 µM	< 0.01		< 0.01	0.0163 µM	1.15	0.214
CCOC(=O)C1(C#N)C(c2ccccc2)CC(O)(c2ccc(OC)cc2)C(C(=O)c2ccc(OC)cc2)C1c1ccccc1 (centres undefined)		> 100 µM				> 100		> 100 µM		> 100		> 100		> 100 µM		> 100 µM		> 100 µM	> 100	
OC[C@H]1C[C@](O)(c2ccc(Cl)cc2)[C@@H](c2ccc(Cl)cc2)O1	22.4	55.9 µM	24.6	57.3 µM	17.3 µM	35.6			17.6 µM	60.1	26.4	72.8	13.7 µM	34.9 µM	30.1	84.8 µM	16	31.6 µM	48.2	18.2
O=[N+]([O-])c1ccc(C2=Nn3cnnc3SC2)o1		32.1 µM		32.3 µM		30.8				43.2		67.2		42.5 µM		34.6 µM				
COc1cc(C(Cc2ccccc2)NC(C)=O)oc(=O)c1 (centres undefined)		> 100 µM		> 100 µM				> 100 µM				> 100		> 100 µM		> 100 µM		> 100 µM	> 100	
Cc1cc(CC(O)c2ccc(Cl)c(Cl)c2)nc(=O)[nH]1 (centres undefined)		38.7 µM		> 100 µM		54.2						92		> 100 µM		90 µM		> 100 µM	96.7	
CCOc1ccccc1C=C1c2ccccc2C(=O)c2ccccc21		18 µM		> 100 µM		29.5		> 100 µM		29.4				23.2 µM		> 100 µM		> 100 µM	61.4	
CCN(CC)CCOc1ccc(-c2nc3cc(Cl)ccc3s2)cc1	1.68	3.14 µM	1.66	3.83 µM	1.25 µM	2.5	1.85	3.61 µM	2.24 µM	10.9	2.02	4.43	0.715 µM	3.34 µM	1.38	2.77 µM	1.78	3.33 µM		
Cc1c([N+](=O)[O-])ccc2c(NCCCN(C)C)ccnc12		89.3 µM		82.7 µM		35.3		52.7 µM		> 100		72.5		> 100 µM		60.4 µM		39.4 µM		
COC(=O)C(=Cc1cc(OC)ccc1OC)C(=O)OC		53.5 µM						56.9 µM		> 100		> 100		92.2 µM		82.1 µM		73.7 µM	72.2	
Cc1ccc(C)c(C2=C(c3cn(C)c4ccccc34)C(=O)NC2=O)c1	> 25	> 25 µM	> 12.1	> 22.8 µM	7.58 µM	> 25	24.8	> 25 µM	12.4 µM	> 25	> 25	> 25	> 22 µM	> 25 µM	4.4	> 19.4 µM	> 25	> 25 µM		
Clc1nc2ccccc2nc1CI	3.95	13.8 µM	20.5	42.9 µM	1.95 µM	3.95	6.47	17 µM	1.75 µM	12.2	2.67	8.24	4.33 µM	21.9 µM	18.9	44.9 µM	4.32	16.5 µM		
Cc1nc2c(-c3cnc(N)nc3)nc(N3CCOCC3)nc2n1C(C)C		1.32 µM and 0.902 µM		0.156 µM and 0.0587 µM	0.254 µM and 0.289 µM	> 100		0.262 µM and 0.286 µM	0.297 µM and 0.197 µM	> 59.3			0.179 µM and 0.123 µM	> 3 µM and 10.9 µM		0.888 µM and 0.406 µM		0.334 µM and 0.305 µM	1.81	
CN(C)c1ccc(C(C=C2c3ccccc3Sc3ccccc32)=C(C#N)C#N)cc1		> 100 µM		> 100 µM		> 100		> 100 µM		> 100				> 100 µM		> 100 µM		> 100 µM	> 100	

SMILES	GI50 (786-0 renal) [µM]	TGI (786-0 renal)	GI50 (A498 renal) [µM]	TGI (A498 renal)	GI50 (HCT-116 colon)	TGI (HCT-116 colon) [µM]	GI50 (IGROV1 ovarian) [µM]	TGI (IGROV1 ovarian)	GI50 (MOLT-4 leukemia)	TGI (MOLT-4 leukemia) [µM]	GI50 (NCI-H226 lung) [µM]	TGI (NCI-H226 lung) [µM]	GI50 (RPMI-8226 leukemia)	TGI (RPMI-8226 leukemia)	GI50 (SF-295 CNS) [µM]	TGI (SF-295 CNS)	GI50 (UACC-62 melanoma) [µM]	TGI (UACC-62 melanoma)	TGI (EKVX NSCLC) [µM]	GI50 (EKVX NSCLC) [µM]
COC(=O)c1cc2c(s1)C(=O)c1ccccc1-2		> 100 µM		> 100 µM		> 100		> 100 µM		> 100		> 100				> 100 µM		> 100 µM	> 100	
CCN1CCN(C(c2ccc(C(F)(F)F)cc2)c2ccc3cccnc3c2O)CC1 (centres undefined)	2.34	7.5 µM	2.31	14.1 µM	3.06 µM	13.5	2.04	12.4 µM	2.12 µM	6.05	3.09	13.7	0.798 µM	16.7 µM	0.313	4.39 µM	1.98	10.4 µM		
O=c1[nH]c2c(nc1NC13CC4CC(CC(C4)C1)C3)c(=O)oc1ccccc12		> 100 µM				> 100		> 100 µM		> 100		85.6		> 100 µM				> 100 µM	> 100	
COc1ccc(C(C)=O)cc1N1C(=O)C2C(C1=O)C1(c3ccccc3)C(=O)C2(c2ccccc2)C(c2ccc(C)cc2)=C1c1ccc(C)cc1 (centres undefined)	> 100	> 100 µM			> 100 µM	> 100	> 100	> 100 µM	> 100 µM	> 100	> 100	> 100	> 100 µM	> 100 µM	> 100	> 100 µM	> 100	> 100 µM		
C=C1C(=O)OC2CCN3CC=C(COC(=O)C(C)(O)C4(CO4)C1C)C23 (centres undefined)		> 100 µM		> 100 µM		> 100		> 100 µM		> 100		> 100				> 100 µM		> 100 µM	> 100	
S=C1NC2(CCCCCC2)NN1c1ccccc1		> 100 µM		> 100 µM				> 100 µM		> 100		> 100		> 100 µM		> 100 µM		> 100 µM	> 100	
N#Cc1c(NN)n(C2OC(CO)C(O)C2O)c2ncnc(N)c12 (centres undefined)	0.228	4.77 µM					0.057	0.348 µM	0.095 µM	0.402	0.496	2.91	0.105 µM	0.614 µM	0.344	47.8 µM	0.126	0.308 µM		0.209
CC(C)(C)CC(C)(C)c1cc2c(O)c(c1)Cc1cc(C(C)(C)CC(C)(C)C)cc(c1O)Cc1cc(C(C)(C)CC(C)(C)C)cc(c1O)Cc1cc(C(C)(C)CC(C)(C)C)cc(c1O)C2		> 100 µM				> 100		> 100 µM		> 100				> 100 µM		> 100 µM		> 100 µM	> 100	
CCCCCCNC(=O)c1cc(NCc2cc(O)ccc2O)ccc1O	5.22	20.7 µM	16.1	> 100 µM	4.75 µM	24.9	12.7	38.7 µM	1.2 µM	13.4			0.371 µM	6.47 µM	19.4	49.2 µM	3.78	14.7 µM	25.2	7.69
S=C(Nc1ccccc1)N(/N=C/C=C/c1ccccc1)c1nnc(-c2ccccc2)c(-c2ccccc2)n1		> 100 µM		> 100 µM				> 100 µM		> 100		> 100		> 100 µM		> 100 µM		> 100 µM	> 100	
COc1ccc(C2C(Cl)C(=O)N2n2cnc3ccccc3c2=O)cc1 (centres undefined)		> 100 µM				> 100		> 100 µM		> 100		> 100		> 100 µM		> 100 µM		> 100 µM	> 100	
COc1cc(C#CC(=O)OC/C=C/c2ccc3c(c2)OCO3)cc(OC)c1OC		> 100 µM		21.5 µM		> 100						48.5		51.8 µM		> 100 µM		37.2 µM	76.9	
Cn1c2c(c3ccccc31)C1CCCCCCC1C1C(=O)OC(=O)C21 (centres undefined)		> 100 µM		> 100 µM				73.8 µM		65.8		> 100		61.2 µM		> 100 µM		> 100 µM	> 100	
CC1(C)COC(c2cccnc2/C=N/O)=N1		> 100 µM		> 100 µM		> 100		> 100 µM		> 100		> 100				> 100 µM		> 100 µM	> 100	
N#Cc1nc(Nc2cccc3ccccc23)sc1N		> 100 µM				> 100		> 100 µM		> 100		> 100		72 µM		> 100 µM		59 µM		
CC(C)c1ccc2c(c1)CC[C@@H]1[C@@](C)(C(=O)O)CCC[C@]21C	4.58	17 µM			6.9 µM	19.8	5.55	29 µM					2.47 µM	6.19 µM	3.74	17.1 µM	4.87	18.4 µM	6.94	1.82
CN(C)N=Nc1ccc(NC=O)cc1		> 100 µM		> 100 µM		> 100		> 100 µM		> 100				> 100 µM		> 100 µM		> 100 µM	> 100	
COc1ccc2c(c1)CCCC(Br)C2=O (centres undefined)		> 30 µM		36.4 µM				4.28 µM		> 48.5		5.92		5.5 µM		17.2 µM		8.88 µM	37.2	
C=C(CNCc1ccccc1)c1ccc(C(=O)Nc2ccccc2N)cc1	4.44	> 100 µM	1.06	7.83 µM	15 µM	> 100	3.21	36.9 µM					3.08 µM	> 100 µM	7.28	37 µM	3.76	25.3 µM	> 100	32.5
